From patent US5602167A, “4-arylcyclohepta[c] pyrrole analgesics” (Ortho Pharmaceutical Corporation, priority 1995, dated 1997)

Assay: Mouse Acetylcholine Bromide-Induced Abdominal Constriction Assay
Type: in vivo
Details: 30 mg/kg po, 30 min before 5.5 mg/kg i.p. acetylcholine bromide, % analgesia

| Structure (SMILES) | % Inhibition at 30 mg/kg (route) |
| --- | --- |
| COc1cccc([C@@]2(O)CCCC[C@@H]3CN(C)C[C@@H]32)c1 (relative stereo) [Cp-2] | 80% |
| CN1C[C@H]2CCCC[C@@H](c3ccccc3)[C@H]2C1 (relative stereo) [Cp-5] | 100% |
| CN1C[C@H]2CCCC[C@](O)(c3ccccc3)[C@H]2C1 (relative stereo) [Cp-1] | 93% |
| CN1C[C@H]2CCCC[C@](O)(c3ccc(F)cc3)[C@H]2C1 (relative stereo) [Cp-3] | 100% |
| CN1C[C@H]2CCCC[C@@H](c3ccc(F)cc3)[C@H]2C1 (relative stereo) [Cp-7] | 100% |
| CN1C[C@H]2CCCC[C@H](c3ccccc3)[C@H]2C1 (relative stereo) [Cp-4] | 80% |
| CN1C[C@H]2CCCC[C@H](c3ccc(F)cc3)[C@H]2C1 (relative stereo) [Cp-6] | 93% |

Same assay, conditions: 30 mg/kg sc, 5.5 mg/kg i.p. acetylcholine bromide, % analgesia

| Structure (SMILES) | % Inhibition at 30 mg/kg (route) |
| --- | --- |
| COc1cccc([C@@H]2CCCC[C@@H]3CN(C)C[C@@H]32)c1 (relative stereo) [Cp-9] | 90% |
| COc1cccc([C@H]2CCCC[C@@H]3CN(C)C[C@@H]32)c1 (relative stereo) [Cp-8] | 100% |
